Where two headings read alike, the source gives them in different places.
Columns and labels:
[1] = tested on: HIV-1 (H9/IIIB strain); assay: Multiple round HIV-1 infection assay (Viking assay), HIV-1 replication in MT4-GFP cells; assay type: cell-based; settings: MT4-GFP cells infected with HIV-1 H9/IIIB
Experimental: The antiviral activity of the tenofovir prodrugs of the Examples herein was assessed in an assay that measures the rate of replication of HIV in cell culture, termed the Viking assay (VIral KINetics in Green cells) and performed as follows. HIV-1 replication was monitored using MT4-gag-GFP clone D3 (hereafter designated MT4-GFP; GFP is green fluorescent protein), which are MT-4 cells modified to harbor a GFP reporter gene, the expression of which is dependent on the HIV-1 expressed proteins tat and rev; see Wang Y-J et al., 2010J Virological Methods 165:230-237. Productive infection of an MT4-GFP cell with HIV-1 results in GFP expression approximately 24 h post-infection. MT4-GFP cells were maintained at 37° C./5% CO2/90% relative humidity in RPMI 1640 supplemented with 10% fetal bovine serum, 100 U/ml penicillin/streptomycin, and 400 μg/ml G418 to maintain the reporter gene. For infections, MT4-GFP cells were placed in the same medium lacking G418 and infected overnight with HIV-1 (H9/IIIB strain) virus at an approximate multiplicity of infection of 0.01 in the same incubation conditions. Cells were then washed and re-suspended in either RPMI 1640 supplemented with 10% or 50% normal human serum (NHS) at 1.6×10^5 cells/mL (10% NHS or 50% NHS, respectively). Compound plates were prepared by dispensing compounds dissolved in DMSO into wells of 384 well poly-D-lysine-coated plates (0.2 μl/well) using an ECHO acoustic dispenser. Each compound was tested in a 10-point serial 3-fold dilution (typical final concentrations: 8.4 μM-0.42 nM). Controls included no inhibitor (DMSO only) and a combination of three antiviral agents (efavirenz, indinavir, and an integrase strand transfer inhibitor at final concentrations of 4 μM each). Cells were added (50 μL/well) to compound plates and the infected cells were maintained at 37′C/5% CO2/90% relative humidity.
Infected cells were quantified at two time points, ˜48 h and ˜72 h post-infection, by counting the number of green cells in each well using an Acumen eX3 scanner. The increase in the number of green cells over ˜24 h period gives the reproductive ratio, R0, which is typically 5-15 and has been shown experimentally to be in logarithmic phase (data not shown). R0 is calculated for each well, and IC50s determined by non-linear 4-parameter curve fitting.

[2] = Prodrug stability assay in bio-relevant media (FaSSIF with Pancreatin), GI Tract stability; assay type: in vitro ADME; settings: HPLC peak area of prodrug at 5 h divided by area at 0 h; 0.5 mg/mL Pancreatin in FaSSIF, 37° C.
Experimental: The following assay was employed to evaluate the stability of the prodrugs in simulated gastrointestinal tract conditions. Preparation of fasted state simulated intestinal fluid (FaSSIF) using Phares SIF Powder was carried out according to protocols from Phare Drug Delivery AG (Baselland, Switzerland). For sample preparation, 10 μL stock solutions (10 mM) of prodrug substance in DMSO was added to 990 μL of 0.5 mg/mL Pancreatin solution (Fisher CAS#8049-47-6) in FaSSIF. Two samples were prepared for each compound. If the sample was a clear solution, it was directly analyzed by HPLC. If the sample was not clear, the sample was diluted with 100% ACN, maintained at 37° C. and observed 5 h later. If the sample was clear, HPLC analysis was directly performed. If the sample was still not clear, the sample was diluted with 100% ACN and assayed by HPLC. All the samples were vortexed for 3 min and observed before injection. For the diluted samples, the area is multiplied by a factor when the data is analyzed. The analysis was carried out with an Agilent 1100 series HPLC with autosampler. The column was usually a Poroshell 120 EC-C18, 4.6×50 mm, 2.7 μm. The flow rate was 1.8 mL/min, and the injection volume was 5 or 10 μL. UV detection was in the range 210-400 nm. The mobile phase consisted of solvent A (water plus 10 mM tetrabutylammonium bromide) and solvent B (acetonitrile) with a gradient of 90% solvent A at 0 min, changing to 95% solvent B over 6 min, maintaining for 1.5 min, then reverting to 90% solvent A over 1.6 min. The HPLC peak area of the prodrug at 5 h was divided by the HPLC peak area of the prodrug at 0 h, to generate the % claimed parent ratio, which is summarized in Table 2. for GI Tract stability.

[3] = 10% normal human serum, read-out: Viking, IC50 (10% NHS)
[4] = 50% normal human serum, read-out: Viking, IC50 (50% NHS)
[5] = Human immunodeficiency virus 1, IIIB, 50% normal human serum, read-out: Viking, IC50 (50% NHS)
[6] = Human immunodeficiency virus 1, IIIB, 10% normal human serum, read-out: Viking, IC50 (10% NHS)

CC(C)OC(=O)C(C)(C)NP(=O)(CO[C@H](C)Cn1cnc2c(N)ncnc21)N[C@H](C)C(=O)OC1CCCC1 (single isomer, unassigned) [Example 1A]
IC50 [1, 3]: 19.3 nM | IC50 [1, 4]: 44.3 nM

CC(C)OC(=O)C(C)(C)NP(=O)(CO[C@H](C)Cn1cnc2c(N)ncnc21)N[C@H](C)C(=O)OC1CCCC1 (single isomer, unassigned) [Example 1B]
IC50 [1, 3]: 2.4 nM | IC50 [1, 4]: 6.2 nM | GI Tract stability [2]: 95.9%

CCCCOC(=O)[C@@H](C)NP(=O)(CO[C@H](C)Cn1cnc2c(N)ncnc21)NC(C)(C)C(=O)OC(C)C (single isomer, unassigned) [Example 3A]
IC50 [1, 3]: 20.7 nM | IC50 [1, 4]: 71.4 nM

CC(C)OC(=O)[C@@H](C)NP(=O)(CO[C@H](C)Cn1cnc2c(N)ncnc21)NC(C)(C)C(=O)OC(C)C (single isomer, unassigned) [Example 4A]
IC50 [1, 3]: 418 nM | IC50 [1, 4]: 1400 nM

CC(C)OC(=O)[C@@H](C)NP(=O)(CO[C@H](C)Cn1cnc2c(N)ncnc21)NC(C)(C)C(=O)OC(C)C (single isomer, unassigned) [Example 4B]
IC50 [1, 3]: 74.6 nM | IC50 [1, 4]: 122 nM

CC(C)COC(=O)[C@@H](C)NP(=O)(CO[C@H](C)Cn1cnc2c(N)ncnc21)NC(C)(C)C(=O)OC(C)C (single isomer, unassigned) [Example 5A]
IC50 [1, 3]: 33.1 nM | IC50 [1, 4]: 129 nM

CC(C)COC(=O)[C@@H](C)NP(=O)(CO[C@H](C)Cn1cnc2c(N)ncnc21)NC(C)(C)C(=O)OC(C)C (single isomer, unassigned) [Example 5B]
IC50 [1, 3]: 2.5 nM | IC50 [1, 4]: 6.4 nM

CC(C)OC(=O)C(C)(C)NP(=O)(CO[C@H](C)Cn1cnc2c(N)ncnc21)N[C@H](C)C(=O)OC1CCCCC1 (single isomer, unassigned) [Example 6A]
IC50 [1, 3]: 101 nM | IC50 [1, 4]: 500 nM

CC(C)OC(=O)C(C)(C)NP(=O)(CO[C@H](C)Cn1cnc2c(N)ncnc21)N[C@H](C)C(=O)OC1CCCCC1 (single isomer, unassigned) [Example 6B]
IC50 [1, 3]: 1.9 nM | IC50 [1, 4]: 5.6 nM

CCCCCCOC(=O)[C@@H](C)NP(=O)(CO[C@H](C)Cn1cnc2c(N)ncnc21)NC(C)(C)C(=O)OC(C)C (single isomer, unassigned) [Example 7A]
IC50 [1, 3]: 10.4 nM | IC50 [1, 4]: 57.8 nM

CCCCCCOC(=O)[C@@H](C)NP(=O)(CO[C@H](C)Cn1cnc2c(N)ncnc21)NC(C)(C)C(=O)OC(C)C (single isomer, unassigned) [Example 7B]
IC50 [1, 3]: 4.7 nM | IC50 [1, 4]: 28.8 nM

CCCCCOC(=O)[C@@H](C)NP(=O)(CO[C@H](C)Cn1cnc2c(N)ncnc21)NC(C)(C)C(=O)OC(C)C (single isomer, unassigned) [Example 8A]
IC50 [1, 5]: 41.4 nM | IC50 [1, 3]: 12.6 nM

CCCCCOC(=O)[C@@H](C)NP(=O)(CO[C@H](C)Cn1cnc2c(N)ncnc21)NC(C)(C)C(=O)OC(C)C (single isomer, unassigned) [Example 8B]
IC50 [1, 3]: 3.9 nM | IC50 [1, 4]: 20.7 nM

CCCCCCOC(=O)C(C)(C)NP(=O)(CO[C@H](C)Cn1cnc2c(N)ncnc21)N[C@H](C)C(=O)OCC(C)C (single isomer, unassigned) [Example 10A]
IC50 [1, 3]: 6.6 nM | IC50 [1, 4]: 72.5 nM

CCCCCCOC(=O)C(C)(C)NP(=O)(CO[C@H](C)Cn1cnc2c(N)ncnc21)N[C@H](C)C(=O)OCCCC (single isomer, unassigned) [Example 11A]
IC50 [1, 3]: 9.9 nM | IC50 [1, 4]: 99 nM

CCCCCCOC(=O)C(C)(C)NP(=O)(CO[C@H](C)Cn1cnc2c(N)ncnc21)N[C@H](C)C(=O)OCCCC (single isomer, unassigned) [Example 11B]
IC50 [1, 3]: 0.8 nM | IC50 [1, 4]: 2.6 nM

CCCCCCOC(=O)C(C)(C)NP(=O)(CO[C@H](C)Cn1cnc2c(N)ncnc21)N[C@H](C)C(=O)OCCCCC (single isomer, unassigned) [Example 12A]
IC50 [1, 3]: 7.3 nM | IC50 [1, 4]: 54.4 nM

CCCCCCOC(=O)C(C)(C)NP(=O)(CO[C@H](C)Cn1cnc2c(N)ncnc21)N[C@H](C)C(=O)OCCCCC (single isomer, unassigned) [Example 12B]
IC50 [1, 3]: 0.5 nM | IC50 [1, 4]: 3.3 nM

CCCCCCOC(=O)[C@@H](C)NP(=O)(CO[C@H](C)Cn1cnc2c(N)ncnc21)NC(C)(C)C(=O)OCCCCCC (single isomer, unassigned) [Example 13B]
GI Tract stability [2]: 83.8%

CCCCCCOC(=O)C(C)(C)NP(=O)(CO[C@H](C)Cn1cnc2c(N)ncnc21)N[C@H](C)C(=O)OC1CCCC1 (single isomer, unassigned) [Example 14A]
IC50 [1, 3]: 9.8 nM | IC50 [1, 4]: 67.2 nM

CCCCCCOC(=O)C(C)(C)NP(=O)(CO[C@H](C)Cn1cnc2c(N)ncnc21)N[C@H](C)C(=O)OC1CCCCC1 (single isomer, unassigned) [Example 15A]
IC50 [1, 3]: 7.7 nM | IC50 [1, 4]: 25.9 nM

CCCCCOC(=O)[C@@H](C)NP(=O)(CO[C@H](C)Cn1cnc2c(N)ncnc21)NC(C)(C)C(=O)OCCCCC (single isomer, unassigned) [Example 16A]
IC50 [1, 3]: 10 nM | IC50 [1, 4]: 60.1 nM

CC(C)OC(=O)C(C)(C)NP(=O)(CO[C@H](C)Cn1cnc2c(N)ncnc21)N[C@H](C)C(=O)OC1CCC1 (single isomer, unassigned) [Example 18A]
IC50 [1, 6]: 20 nM | IC50 [1, 5]: 34.2 nM

CCCCCOC(=O)C(C)(C)NP(=O)(CO[C@H](C)Cn1cnc2c(N)ncnc21)N[C@H](C)C(=O)OC1CCC1 (single isomer, unassigned) [Example 19A]
IC50 [1, 3]: 6.9 nM | IC50 [1, 4]: 27.4 nM

CCCCCCOC(=O)C(C)(C)NP(=O)(CO[C@H](C)Cn1cnc2c(N)ncnc21)N[C@H](C)C(=O)OC1CCC1 (single isomer, unassigned) [Example 21A]
IC50 [1, 3]: 4.4 nM | IC50 [1, 4]: 14.9 nM

CCCCCCOC(=O)C(C)(C)NP(=O)(CO[C@H](C)Cn1cnc2c(N)ncnc21)N[C@H](C)C(=O)OC1CCC1 (single isomer, unassigned) [Example 21B]
IC50 [1, 3]: 0.7 nM | IC50 [1, 4]: 2.8 nM

CCCCOC(=O)C(C)(C)NP(=O)(CO[C@H](C)Cn1cnc2c(N)ncnc21)N[C@H](C)C(=O)OC1CCC1 (single isomer, unassigned) [Example 23A]
IC50 [1, 6]: 6.7 nM | IC50 [1, 4]: 35.5 nM

CCCCCOC(=O)[C@H]1CCCN1P(=O)(CO[C@H](C)Cn1cnc2c(N)ncnc21)NC(C)(C)C(=O)OCCCCC (single isomer, unassigned) [Example 26A]
IC50 [1, 6]: 5.3 nM | IC50 [1, 4]: 50.3 nM

C[C@H](Cn1cnc2c(N)ncnc21)OCP(=O)(N[C@H](C)C(=O)OC1CCCC1)NC(C)(C)C(=O)OC1CCCCC1 (single isomer, unassigned) [Example 27A]
IC50 [1, 3]: 12.9 nM | IC50 [1, 4]: 64.5 nM

C[C@H](Cn1cnc2c(N)ncnc21)OCP(=O)(N[C@H](C)C(=O)OC1CCCC1)NC(C)(C)C(=O)OC1CCC1 (single isomer, unassigned) [Example 28A]
IC50 [1, 6]: 5.4 nM | IC50 [1, 4]: 16.1 nM

— US10745428B2, “Antiviral phosphodiamide prodrugs of tenofovir” (Merck Sharp & Dohme Corp., priority 2015, dated 2020)
